From publication PMC5285354, “Cationic Net Charge and Counter Ion Type as Antimicrobial Activity Determinant Factors of Short Lipopeptides” (Frontiers in Microbiology, 2017)
Converted amounts (≈) assume the structure as drawn. Like-named read-outs stand apart in the source and are kept apart here. Where a SMILES comes first, the peptide text is derived from it. The star is where a group is joined. Octanoyl = CCCCCCCC(=O)*

Columns and labels:
Format in all cases: cell-based
[1] = system: Aspergillus brasiliensis (ATCC 16404); settings: ATCC 16404, 48 h
Protocol: (§1) The minimum inhibitory concentration (MIC), minimum bactericidal concentration (MBC) and minimum fungicidal concentration (MFC) were determined according to the procedure recommended by the Clinical Laboratory Standards Institute (CLSI). The following reference strains were tested: Gram-negative E. coli (ATCC 25922), K. pneumoniae (ATCC 700603), P. vulgaris (PCM 2668), P. aeruginosa (ATCC 9027), Gram-positive S. aureus (ATCC 25923), S. epidermidis (PCM 2118), B. subtilis (ATCC 6633), E. faecalis (ATCC 29212) and fungi C. albicans (ATCC 10231), C. tropicalis (PCM 2681), and A. brasiliensis (ATCC 16404). All the microorganisms were from the Polish Collection of Microorganisms (Wroclaw, Poland). MIC was determined using a microbroth dilution method with Mueller-Hinton (MH) broth for bacteria and Sabouraud Dextrose broth for fungi (Becton Dickinson, Le Pont de Claix, France). An initial inoculum of 10^5 cfu/mL was used for bacteria and 10^3 cfu/mL for fungi. Polypropylene 96-well plates (Kartell, Noviglio, Italy) were incubated for 18 h at 37°C for bacteria and for 48 h at 25°C for the tested fungi. MIC (μg/mL) was taken as the lowest concentration of the lipopeptide, at which the observable growth was inhibited. […] The experiments were performed in triplicate on three different days.

[2] = system: Candida albicans (ATCC 10231); settings: ATCC 10231, 48 h
Protocol: as §1

[3] = system: Proteus vulgaris (PCM 2668); settings: PCM 2668, TFA salt, triplicate; for MIC Proteus vulgaris: Mueller-Hinton broth, 10^5 cfu/mL, 18 h 37°C; for MBC Proteus vulgaris: subculture on Mueller-Hinton II Agar, 24 h 37°C
Protocol: as §1

[4] = system: Staphylococcus aureus (ATCC 25923); settings: ATCC 25923, TFA salt; for MBC Staphylococcus aureus: MIC wells subcultured on Mueller-Hinton II Agar, 24 h 37°C, triplicate; for MIC Staphylococcus aureus: Mueller-Hinton broth, 10^5 cfu/mL, 18 h 37°C, triplicate on three days
Protocol: as §1

[5] = system: Bacillus subtilis (ATCC 6633)
Protocol: as §1

[6] = system: Staphylococcus epidermidis (PCM 2118)
Protocol: as §1

[7] = system: Candida tropicalis (PCM 2681); settings: PCM 2681, 48 h
Protocol: as §1

[8] = system: Pseudomonas aeruginosa (ATCC 9027); settings: ATCC 9027, TFA salt, triplicate; for MIC Pseudomonas aeruginosa: Mueller-Hinton broth, 10^5 cfu/mL, 18 h 37°C; for MBC Pseudomonas aeruginosa: subculture on Mueller-Hinton II Agar, 24 h 37°C
Protocol: as §1

[9] = system: Escherichia coli (ATCC 25922); settings: ATCC 25922, TFA salt, triplicate; for MIC Escherichia coli: Mueller-Hinton broth, 10^5 cfu/mL, 18 h 37°C; for MBC Escherichia coli: subculture on Mueller-Hinton II Agar, 24 h 37°C
Protocol: as §1

[10] = system: Klebsiella pneumoniae (ATCC 700603); settings: ATCC 700603, TFA salt, triplicate; for MIC Klebsiella pneumoniae: Mueller-Hinton broth, 10^5 cfu/mL, 18 h 37°C; for MBC Klebsiella pneumoniae: subculture on Mueller-Hinton II Agar, 24 h 37°C
Protocol: as §1

[11] = system: Enterococcus faecalis (ATCC 29212); settings: ATCC 29212, TFA salt, triplicate; for MIC Enterococcus fecalis: Mueller-Hinton broth, 10^5 cfu/mL, 18 h 37°C; for MBC Enterococcus fecalis: subculture on Mueller-Hinton II Agar, 24 h 37°C
Protocol: as §1

[12] = ATCC 6633, TFA salt, Mueller-Hinton broth, 10^5 cfu/mL, 18 h 37°C, triplicate
[13] = ATCC 6633, TFA salt, subculture on Mueller-Hinton II Agar, 24 h 37°C, triplicate
[14] = PCM 2118, TFA salt, Mueller-Hinton broth, 10^5 cfu/mL, 18 h 37°C, triplicate
[15] = PCM 2118, TFA salt, subculture on Mueller-Hinton II Agar, 24 h 37°C, triplicate

Row | SMILES | MIC Aspergillus brasiliensis [1] [µg/mL] | MIC Candida albicans [2] [µg/mL] | MIC Proteus vulgaris [3] [µg/mL] | MIC Staphylococcus aureus [4] [µg/mL] | MIC Bacillus subtillis [5, 12] [µg/mL] | MIC Candida tropicalis [7] [µg/mL] | MIC Pseudomonas aeruginosa [8] [µg/mL] | MIC Escherichia coli [9] [µg/mL] | MIC Klebsiella pneumoniae [10] [µg/mL] | MIC Enterococcus fecalis [11] [µg/mL] | MFC Aspergillus brasiliensis [1] [µg/mL] | MFC Candida albicans [2] [µg/mL] | MBC Proteus vulgaris [3] [µg/mL] | MBC Staphylococcus aureus [4] [µg/mL] | MBC Bacillus subtillis [5, 13] [µg/mL] | MFC Candida tropicalis [7] [µg/mL] | MBC Pseudomonas aeruginosa [8] [µg/mL] | MBC Escherichia coli [9] [µg/mL] | MBC Klebsiella pneumoniae [10] [µg/mL] | MBC Enterococcus fecalis [11] [µg/mL] | further results
1 | CCCCCCCC(=O)N[C@@H](CCCCN)C(N)=O [C8-K-NH2] | 1000 (≈ 3.68 mM) | 1000 (≈ 3.68 mM) | >2000 | >1000 | >1000 | 1000 (≈ 3.68 mM) | >2000 | >1000 | >1000 | >1000 | 1000 (≈ 3.68 mM) | 1000 (≈ 3.68 mM) | >2000 | >1000 | >1000 | 2000 (≈ 7.37 mM) | >2000 | >1000 | >1000 | >1000 | MIC Staphylococcus epidermidis [6, 14]: >1000 µg/mL; MBC Staphylococcus epidermidis [6, 15]: >1000 µg/mL
2 | CCCCCCCC(=O)N[C@@H](CCCCN)C(=O)NCC(N)=O [C8-KG-NH2] (Octanoyl-Lys-Gly-NH2) | 2000 (≈ 6.09 mM) | 2000 (≈ 6.09 mM) | >2000 | >2000 | >2000 | 2000 (≈ 6.09 mM) | >2000 | >2000 | >2000 | >2000 | 2000 (≈ 6.09 mM) | 2000 (≈ 6.09 mM) | >2000 | >2000 | >2000 | 2000 (≈ 6.09 mM) | >2000 | >2000 | >2000 | >2000 | MIC Staphylococcus epidermidis [6, 14]: >2000 µg/mL; MBC Staphylococcus epidermidis [6, 15]: >2000 µg/mL
3 | CCCCCCCC(=O)N[C@@H](CCCCN)C(=O)NCC(=O)N[C@@H](CCCCN)C(N)=O [C8-KGK-NH2] (Octanoyl-Lys-Gly-Lys-NH2) | 2000 (≈ 4.38 mM) | 2000 (≈ 4.38 mM) | >2000 | >2000 |  | 2000 (≈ 4.38 mM) | >2000 | >2000 | >2000 | >2000 | 2000 (≈ 4.38 mM) | 2000 (≈ 4.38 mM) | >2000 | >2000 |  | 2000 (≈ 4.38 mM) | >2000 | >2000 | >2000 | >2000 | MIC Bacillus subtillis ([5]; ATCC 6633, 18 h): 512 µg/mL (≈ 1.12 mM); MBC Bacillus subtillis ([5]; ATCC 6633, 24 h): 1000 µg/mL (≈ 2.19 mM); MIC Staphylococcus epidermidis ([6]; PCM 2118, 18 h): 256 µg/mL (≈ 0.561 mM); MBC Staphylococcus epidermidis ([6]; PCM 2118, 24 h): 1000 µg/mL (≈ 2.19 mM)

Continued, in another order:

Row | MIC Aspergillus brasiliensis [1] [µg/mL] | MIC Candida albicans [2] [µg/mL] | MIC Proteus vulgaris [3] [µg/mL] | MIC Staphylococcus aureus [4] [µg/mL] | MIC Bacillus subtillis [5, 12] [µg/mL] | MIC Candida tropicalis [7] [µg/mL] | MIC Pseudomonas aeruginosa [8] [µg/mL] | MIC Escherichia coli [9] [µg/mL] | MIC Klebsiella pneumoniae [10] [µg/mL] | MIC Enterococcus fecalis [11] [µg/mL] | SMILES | MFC Aspergillus brasiliensis [1] [µg/mL] | MFC Candida albicans [2] [µg/mL] | MBC Proteus vulgaris [3] [µg/mL] | MBC Staphylococcus aureus [4] [µg/mL] | MBC Bacillus subtillis [5, 13] [µg/mL] | MFC Candida tropicalis [7] [µg/mL] | MBC Pseudomonas aeruginosa [8] [µg/mL] | MBC Escherichia coli [9] [µg/mL] | MBC Klebsiella pneumoniae [10] [µg/mL] | MBC Enterococcus fecalis [11] [µg/mL] | further results
4 | 2000 (≈ 3.89 mM) | 2000 (≈ 3.89 mM) | >2000 | >2000 | >2000 | 2000 (≈ 3.89 mM) | >2000 | >2000 | >2000 | >2000 | CCCCCCCC(=O)N[C@@H](CCCCN)C(=O)NCC(=O)N[C@@H](CCCCN)C(=O)NCC(N)=O [C8-KGKG-NH2] (Octanoyl-KGKG-NH2) | 2000 (≈ 3.89 mM) | 2000 (≈ 3.89 mM) | >2000 | >2000 | >2000 | 2000 (≈ 3.89 mM) | >2000 | >2000 | >2000 | >2000 | MIC Staphylococcus epidermidis [6, 14]: >2000 µg/mL; MBC Staphylococcus epidermidis [6, 15]: >2000 µg/mL
5 | 1000 (≈ 2.5 mM) | 1000 (≈ 2.5 mM) | >2000 | >1000 | >1000 | 1000 (≈ 2.5 mM) | >2000 | >1000 | >1000 | >1000 | CCCCCCCC(=O)N[C@@H](CCCCN)C(=O)N[C@@H](CCCCN)C(N)=O [C8-KK-NH2] | 1000 (≈ 2.5 mM) | 1000 (≈ 2.5 mM) | >2000 | >1000 | >1000 | 1000 (≈ 2.5 mM) | >2000 | >1000 | >1000 | >1000 | MIC Staphylococcus epidermidis [6, 14]: >1000 µg/mL; MBC Staphylococcus epidermidis [6, 15]: >1000 µg/mL
6 | 2000 (≈ 3.79 mM) | 2000 (≈ 3.79 mM) | >2000 | >2000 |  | 2000 (≈ 3.79 mM) | >2000 | >2000 | >2000 | >2000 | CCCCCCCC(=O)N[C@@H](CCCCN)C(=O)N[C@@H](CCCCN)C(=O)N[C@@H](CCCCN)C(N)=O [C8-KKK-NH2] | 2000 (≈ 3.79 mM) | 2000 (≈ 3.79 mM) | >2000 | >2000 |  | 2000 (≈ 3.79 mM) | >2000 | >2000 | >2000 | >2000 | MIC Bacillus subtillis ([5]; ATCC 6633, 18 h): 1000 µg/mL (≈ 1.89 mM); MBC Bacillus subtillis ([5]; ATCC 6633, 24 h): 1000 µg/mL (≈ 1.89 mM); MIC Staphylococcus epidermidis ([6]; PCM 2118, 18 h): 256 µg/mL (≈ 0.485 mM); MBC Staphylococcus epidermidis ([6]; PCM 2118, 24 h): 512 µg/mL (≈ 0.97 mM)
